For the first data set, the system named is endogenous SSPN protein with an N-term fusion protein (C2C12 cells). The data set is described as follows: C2C12 HiBiT assay (SSPN-HiBiT myotubes, primary screen). The data set is classed as cell-based, murine. The settings on record: treated day 2, harvested day 4 of differentiation, concentration not given. As to the method: FIG. 1. Activity of DDL-463, DDL-465 (A) and DDL-472 (B) in HiBiT assay. Comparison of activity of the new compounds with parent compound (OT-9m) and vehicle-treated cells. SSPN-HiBiT myotubes were treated on day 2 and harvested on day 4 of differentiation. R.U.=relative units normalized to protein concentration and vehicle control (DMSO). n=18. **p<0.01, ****p<0.0001, ns-difference is non-significant from the vehicle-treated cells.
Comparison of activity of the new compounds of quinolone series (DDL-494, DDL-495, DDL-496) with parent compound (DDL-449 (aka OT-9m)) and vehicle-treated cells. SSPN-HiBiT myotubes were treated on day 2 and harvested on day 4 of differentiation. R.U.=relative units normalized to protein concentration and vehicle control (DMSO). n=18 for every compound concentration. *p<0.05; **p<0.01, ***p<0.001; ****p<0.0001
Comparison of activity of the new compound of coumarin series (DDL-491) with parent compound (DDL-472) and vehicle-treated cells. SSPN-HiBiT myotubes were treated on day 2 and harvested on day 4 of differentiation. R.U.=relative units normalized to protein concentration and vehicle control (DMSO). n=18 for every compound concentration. *p<0.05; ****p<0.0001
To assess activity of the new molecules, a C2C12 HiBiT assay was used as a primary screen. This assay is based on murine C2C12 cell line expressing endogenous SSPN protein with an N-term fusion protein described previously in WO 2022/055926.
Details on development of HiBiT assay for rapid testing of new analogues in vitro (FIG. 2A, B) are provided in PCT Pub. No. WO 2022/055926.
Background: HiBiT is a short tag that completes a luciferase, so light tracks the accessible tagged protein.
`COc1ccc2[nH]c(=O)c(C(=O)NC3=NNC(C(=O)N4CCCOCC4)N3)cc2c1` (stereo not drawn) [DDL-458]: the “SSPN-HiBiT fold change over vehicle” value is ~1 fold. Same read-out and setting: with `COc1ccc2[nH]c(=O)c(C(=O)Nc3c[nH]c(C(=O)N4CCCOCC4)n3)cc2c1` [DDL-459, N-(2-(1,4-oxazepane-4-carbonyl)-1H-imidazol-4-yl)-6-methoxy-2-oxo-1,2-dihydroquinoline-3-carboxamide] the figure was ~1 fold; with `COc1ccc2cc(C(=O)Nc3ccc(C(=O)N4CCCOCC4)cc3)c(=O)[nH]c2c1` [DDL-460], 1.1 fold. Same read-out and setting: for `COc1cc2cc(C(=O)Nc3ccc(C(=O)N4CCCOCC4)cc3)c(=O)[nH]c2cc1OC` [DDL-461] the value was 1.1 fold; for `O=C(Nc1ccc(C(=O)N2CCCOCC2)cc1)c1cc2ccccc2[nH]c1=O` [DDL-462], ~1 fold; for `O=C(Nc1ccc(C(=O)N2CCCOCC2)cc1)c1cc2cc(F)ccc2[nH]c1=O` [DDL-463], 1.4 fold. The same measure, in the same setting: for `O=C(Nc1ccc(C(=O)N2CCCOCC2)cc1)c1cc2ccc(F)cc2[nH]c1=O` [DDL-464] the value was ~1 fold; for `CC(=O)Nc1ccc2[nH]c(=O)c(C(=O)Nc3ccc(C(=O)N4CCCOCC4)cc3)cc2c1` [DDL-476], ~1 fold. For the molecule `CC(C)Oc1ccc2cc(C(=O)Nc3ccc(C(=O)N4CCCOCC4)cc3)c(=O)oc2c1` [DDL-481], the “SSPN-HiBiT fold change over vehicle” value is ~0.9 fold.

For `O=C(Nc1ccc(C(=O)N2CCCOCC2)cc1)c1cc2ccc(N3CCOCC3)cc2oc1=O` [DDL-482], the “SSPN-HiBiT fold change over vehicle” value is reported as ~1 fold.

As to `CN(C)c1ccc2cc(C(=O)Nc3ccc(C(=O)N4CCCOCC4)cc3)c(=O)oc2c1` [DDL-484], the “SSPN-HiBiT fold change over vehicle” value amounted to 1.1 fold. On the same count and under the same terms, for `C#CCN(CC)c1ccc2cc(C(=O)Nc3ccc(C(=O)N4CCCOCC4)cc3)c(=O)oc2c1` [DDL-489] the value was 1.2 fold; for `CC(C)N(c1ccc2cc(C(=O)Nc3ccc(C(=O)N4CCCOCC4)cc3)c(=O)oc2c1)C(C)C` [DDL-491], 1.4 fold; for `O=C(Nc1ccc(C(=O)N2CCCOCC2)cc1)c1cc2cc(Br)ccc2[nH]c1=O` [DDL-496], 1.3 fold.

On to `CC(C)Oc1ccc2[nH]c(=O)c(C(=O)Nc3ccc(C(=O)N4CCCOCC4)cc3)cc2c1` [DDL-762], for which the “SSPN-HiBiT fold change over vehicle” value is reported as 1.4 fold.

The data set is the same for the next values; noted with them: treated day 2, harvested day 4 of differentiation, vs vehicle.
Turning to `O=C(Nc1ccc(C(=O)N2CCCOCC2)cc1)c1cc2cc(F)ccc2[nH]c1=O` [DDL-463], the “activity in HiBiT assay” value is recorded as “exhibit activity”. Consider `CC(C)N(c1ccc2cc(C(=O)Nc3ccc(C(=O)N4CCCOCC4)cc3)c(=O)oc2c1)C(C)C` [DDL-491], for which the “activity in HiBiT assay” value was “active”.

As for `O=C(Nc1ccc(C(=O)N2CCCOCC2)cc1)c1cc2cc(Br)ccc2[nH]c1=O` [DDL-496], the “activity in HiBiT assay” value is “active”.

These data come from patent US20260317292A1, “SMALL MOLECULE THERAPY FOR DUCHENNE MUSCULAR DYSTROPHY” (The Regents of the University of California, priority 2023, published 2026).
